{"source": "patent US20230089715A1", "about": "“MASITINIB FOR THE TREATMENT OF A MULTIPLE SCLEROSIS PATIENT SUBPOPULATION” (AB SCIENCE, priority 2020, published 2023)", "system": "patients with progressive multiple sclerosis (PPMS or non-active SPMS)", "assay": "Study AB07002: randomized, double-blind, placebo-controlled phase 3 study, overall EDSS change from baseline", "assay_type": "in vivo, human", "parameters": "key to LSM EDSS, MAS (overall EDSS change from baseline): LS mean EDSS change from baseline; positive value = worsening", "settings": "4.5 mg/kg/day oral, 96 weeks", "description": "An international, multicenter, randomized, double-blind, placebo-controlled phase 3 study was conducted with the objective to evaluate oral masitinib at a dose of 4.5 mg/kg/day as a treatment for progressive multiple sclerosis (progressive MS), as defined hereinabove. […] Eligible patients were treated for 96 weeks with masitinib at a dose of 4.5 mg/kg/day (mg per kilo body weight per day) or with placebo. Primary endpoint was overall EDSS change from baseline using a repeated analysis of covariance model (i.e., ANCOVA GEE model on all measurements from week 12 (W12) to week 96 (W96)). Results are expressed as least-squares means difference, illustrating the progression of EDSS score, that is to say the change over time in the EDSS score or in other words the difference between the EDSS score at baseline and the EDSS score after treatment with masitinib or with placebo (a positive value indicates a worsening of the patient). Treatment-effect is reported as between-group difference (ΔLSM, negative value indicates a beneficial effect of treatment with masitinib as compared to treatment with placebo). […] Patients suffering from a disease other than MS that would better explain their neurological clinical signs and symptoms and/or lesions observed with magnetic resonance imaging (“MRI lesions”) were excluded. Subpopulation analyses of primary endpoint data from study AB07002 assessed the impact of the clinical markers ‘time from onset’ with respect to baseline (i.e., date of treatment initiation), derived from the estimated date of first clinical MS symptom(s), or ‘time from diagnosis’ with respect to baseline (i.e., date of treatment initiation), on masitinib efficacy in patients with progressive MS (see Example 3). ‘Time from onset’ is derived from the date (year/month/day, year/month, or year) of first clinical symptom(s) with duration calculated from date of treatment initiation. The date of first symptom(s) is typically determined retrospectively from medical history, for example from medical records and patient/caregiver historical recall of MS related symptoms following a clinically definite diagnosis. Imputation of missing data can be handled using various methods, one example of which is the following approach: if the information regarding day is missing, the day is considered to be the last day of the month; if the day and month are missing, the day is considered to be the last day of June. ‘Time from diagnosis’ of progressive MS, is ideally based on a clinically definite diagnosis of progressive MS as determined by a MS specialist neurologist. In practice it is derived from the date (year/month/day, year/month, or year) of first clinically definite diagnosis of progressive MS, i.e., PPMS or non-active SPMS, with duration calculated from date of treatment initiation. At the time of MS diagnosis, a provisional disease course should be specified (relapsing-remitting, primary progressive, or secondary progressive) and whether the course is active or not (non-active) and progressive or not based on the previous year's history. The phenotype should be periodically re-evaluated based on accumulated information. Comparison of subpopulation analyses with respect to the corresponding full analysis dataset (see Table 4) is reported as relative difference in ΔEDSS (R %). A large positive R % value indicates a subpopulation that receives greater benefit from masitinib treatment, while a negative R % value indicates a diminished treatment-effect or lack of discernable treatment-effect in the subpopulation.", "key": {"[1]": {"settings": "PPMS, T(diag) > 2 Y and T(onset) > 5 Y"}, "[2]": {"settings": "PPMS, complement T(diag) ≤ 2 Y or T(onset) ≤ 5 Y"}, "[3]": {"settings": "Progressive MS, T(diag) > 2 Y and T(onset) > 5 Y"}}, "data": [{"smiles": "Cc1ccc(NC(=O)c2ccc(CN3CCN(C)CC3)cc2)cc1Nc1nc(-c2cccnc2)cs1", "note": "[masitinib, 4-(4-methylpiperazin-1-ylmethyl)-N-[4-methyl-3-(4-pyridin-3ylthiazol-2-ylamino)phenyl]benzamide]", "values": [{"measurement": "LSM EDSS, MAS (overall EDSS change from baseline)", "setting": "PPMS, T(diag) > 1 Y", "result": "−0.004"}, {"measurement": "R % (relative difference in ΔEDSS with respect to full analysis dataset)", "setting": "PPMS, T(diag) > 1 Y", "result": 31, "unit": "%"}, {"measurement": "ΔEDSS (between group difference, treatment-effect vs placebo)", "setting": "PPMS, T(diag) > 1 Y", "result": "−0.174"}, {"measurement": "LSM EDSS, MAS (overall EDSS change from baseline)", "setting": "[1]", "result": "−0.076"}, {"measurement": "ΔEDSS (between group difference, treatment-effect vs placebo)", "setting": "[1]", "result": "−0.283"}, {"measurement": "R % (relative difference in ΔEDSS with respect to full analysis dataset)", "setting": "PPMS, T(diag) > 2 Y and T(onset) > 5 Y, 4.5 mg/kg/day", "result": 113, "unit": "%"}, {"measurement": "LSM EDSS, MAS (overall EDSS change from baseline)", "setting": "PPMS, T(diag) > 2 Y", "result": "−0.070"}, {"measurement": "ΔEDSS (between group difference, treatment-effect vs placebo)", "setting": "PPMS, T(diag) > 2 Y", "result": "−0.246"}, {"measurement": "R % (relative difference in ΔEDSS with respect to full analysis dataset)", "setting": "PPMS, T(diag) > 2 Y, 4.5 mg/kg/day", "result": 85, "unit": "%"}, {"measurement": "LSM EDSS, MAS (overall EDSS change from baseline)", "setting": "PPMS, T(diag) > 3 Y", "result": "−0.099"}, {"measurement": "ΔEDSS (between group difference, treatment-effect vs placebo)", "setting": "PPMS, T(diag) > 3 Y", "result": "−0.211"}, {"measurement": "R % (relative difference in ΔEDSS with respect to full analysis dataset)", "setting": "PPMS, T(diag) > 3 Y, 4.5 mg/kg/day", "result": 59, "unit": "%"}, {"measurement": "LSM EDSS, MAS (overall EDSS change from baseline)", "setting": "PPMS, T(diag) > 4 Y", "result": 0.097}, {"measurement": "R % (relative difference in ΔEDSS with respect to full analysis dataset)", "setting": "PPMS, T(diag) > 4 Y", "result": 25, "unit": "%"}, {"measurement": "ΔEDSS (between group difference, treatment-effect vs placebo)", "setting": "PPMS, T(diag) > 4 Y", "result": "−0.166"}, {"measurement": "LSM EDSS, MAS (overall EDSS change from baseline)", "setting": "PPMS, T(diag) ≤ 1 Y", "result": "−0.097"}, {"measurement": "ΔEDSS (between group difference, treatment-effect vs placebo)", "setting": "PPMS, T(diag) ≤ 1 Y", "result": 0.137}, {"measurement": "LSM EDSS, MAS (overall EDSS change from baseline)", "setting": "PPMS, T(diag) ≤ 2 Y", "result": 0.190}, {"measurement": "LSM EDSS, MAS (overall EDSS change from baseline)", "setting": "PPMS, T(diag) ≤ 3 Y", "result": 0.070}, {"measurement": "ΔEDSS (between group difference, treatment-effect vs placebo)", "setting": "PPMS, T(diag) ≤ 3 Y", "result": 0.009}, {"measurement": "LSM EDSS, MAS (overall EDSS change from baseline)", "setting": "PPMS, T(diag) ≤ 4 Y", "result": 0.099}, {"measurement": "ΔEDSS (between group difference, treatment-effect vs placebo)", "setting": "PPMS, T(diag) ≤ 4 Y", "result": "−0.089"}, {"measurement": "LSM EDSS, MAS (overall EDSS change from baseline)", "setting": "PPMS, T(onset) > 1 Y", "result": 0.040}, {"measurement": "R % (relative difference in ΔEDSS with respect to full analysis dataset)", "setting": "PPMS, T(onset) > 1 Y", "result": "−6", "unit": "%"}, {"measurement": "ΔEDSS (between group difference, treatment-effect vs placebo)", "setting": "PPMS, T(onset) > 1 Y", "result": "−0.125"}, {"measurement": "LSM EDSS, MAS (overall EDSS change from baseline)", "setting": "PPMS, T(onset) > 2 Y", "result": 0.026}, {"measurement": "R % (relative difference in ΔEDSS with respect to full analysis dataset)", "setting": "PPMS, T(onset) > 2 Y", "result": 5, "unit": "%"}, {"measurement": "ΔEDSS (between group difference, treatment-effect vs placebo)", "setting": "PPMS, T(onset) > 2 Y", "result": "−0.139"}, {"measurement": "LSM EDSS, MAS (overall EDSS change from baseline)", "setting": "PPMS, T(onset) > 3 Y", "result": 0.021}, {"measurement": "R % (relative difference in ΔEDSS with respect to full analysis dataset)", "setting": "PPMS, T(onset) > 3 Y", "result": 31, "unit": "%"}, {"measurement": "ΔEDSS (between group difference, treatment-effect vs placebo)", "setting": "PPMS, T(onset) > 3 Y", "result": "−0.174"}, {"measurement": "LSM EDSS, MAS (overall EDSS change from baseline)", "setting": "PPMS, T(onset) > 4 Y", "result": 0.028}, {"measurement": "R % (relative difference in ΔEDSS with respect to full analysis dataset)", "setting": "PPMS, T(onset) > 4 Y", "result": 22, "unit": "%"}, {"measurement": "ΔEDSS (between group difference, treatment-effect vs placebo)", "setting": "PPMS, T(onset) > 4 Y", "result": "−0.162"}, {"measurement": "LSM EDSS, MAS (overall EDSS change from baseline)", "setting": "PPMS, T(onset) > 5 Y", "result": 0.029}, {"measurement": "ΔEDSS (between group difference, treatment-effect vs placebo)", "setting": "PPMS, T(onset) > 5 Y", "result": "−0.214"}, {"measurement": "R % (relative difference in ΔEDSS with respect to full analysis dataset)", "setting": "PPMS, T(onset) > 5 Y, 4.5 mg/kg/day", "result": 61, "unit": "%"}, {"measurement": "LSM EDSS, MAS (overall EDSS change from baseline)", "setting": "PPMS, T(onset) ≤ 3 Y", "result": 0.111}, {"measurement": "ΔEDSS (between group difference, treatment-effect vs placebo)", "setting": "PPMS, T(onset) ≤ 3 Y", "result": 0.349}, {"measurement": "LSM EDSS, MAS (overall EDSS change from baseline)", "setting": "PPMS, T(onset) ≤ 4 Y", "result": "−0.082"}, {"measurement": "ΔEDSS (between group difference, treatment-effect vs placebo)", "setting": "PPMS, T(onset) ≤ 4 Y", "result": 0.051}, {"measurement": "LSM EDSS, MAS (overall EDSS change from baseline)", "setting": "PPMS, T(onset) ≤ 5 Y", "result": 0.314}, {"measurement": "LSM EDSS, MAS (overall EDSS change from baseline)", "setting": "[2]", "result": 0.180}, {"measurement": "ΔEDSS (between group difference, treatment-effect vs placebo)", "setting": "[2]", "result": 0.118}, {"measurement": "LSM EDSS, MAS (overall EDSS change from baseline)", "setting": "PPMS, full analysis dataset", "result": 0.030}, {"measurement": "ΔEDSS (between group difference, treatment-effect vs placebo)", "setting": "PPMS, full analysis dataset, 4.5 mg/kg/day", "result": "−0.133"}, {"measurement": "ΔEDSS (between group difference, treatment-effect vs placebo)", "setting": "PPMS, full analysis dataset, listed as Masitinib, 4.5 mg/kg/day", "result": "non-significant trend"}, {"measurement": "LSM EDSS, MAS (overall EDSS change from baseline)", "setting": "Progressive MS, T(diag) > 1 Y", "result": "−0.012"}, {"measurement": "R % (relative difference in ΔEDSS with respect to full analysis dataset)", "setting": "Progressive MS, T(diag) > 1 Y", "result": 10, "unit": "%"}, {"measurement": "ΔEDSS (between group difference, treatment-effect vs placebo)", "setting": "Progressive MS, T(diag) > 1 Y", "result": "−0.109"}, {"measurement": "LSM EDSS, MAS (overall EDSS change from baseline)", "setting": "[3]", "result": "−0.057"}, {"measurement": "ΔEDSS (between group difference, treatment-effect vs placebo)", "setting": "[3]", "result": "−0.162"}, {"measurement": "R % (relative difference in ΔEDSS with respect to full analysis dataset)", "setting": "Progressive MS, T(diag) > 2 Y and T(onset) > 5 Y, 4.5 mg/kg/day", "result": 64, "unit": "%"}, {"measurement": "LSM EDSS, MAS (overall EDSS change from baseline)", "setting": "Progressive MS, T(diag) > 2 Y", "result": "−0.029"}, {"measurement": "ΔEDSS (between group difference, treatment-effect vs placebo)", "setting": "Progressive MS, T(diag) > 2 Y", "result": "−0.133"}, {"measurement": "R % (relative difference in ΔEDSS with respect to full analysis dataset)", "setting": "Progressive MS, T(diag) > 2 Y, 4.5 mg/kg/day", "result": 34, "unit": "%"}, {"measurement": "LSM EDSS, MAS (overall EDSS change from baseline)", "setting": "Progressive MS, T(diag) > 3 Y", "result": "−0.068"}, {"measurement": "R % (relative difference in ΔEDSS with respect to full analysis dataset)", "setting": "Progressive MS, T(diag) > 3 Y", "result": 39, "unit": "%"}, {"measurement": "ΔEDSS (between group difference, treatment-effect vs placebo)", "setting": "Progressive MS, T(diag) > 3 Y", "result": "−0.138"}, {"measurement": "LSM EDSS, MAS (overall EDSS change from baseline)", "setting": "Progressive MS, T(diag) > 4 Y", "result": "−0.053"}, {"measurement": "R % (relative difference in ΔEDSS with respect to full analysis dataset)", "setting": "Progressive MS, T(diag) > 4 Y", "result": 48, "unit": "%"}, {"measurement": "ΔEDSS (between group difference, treatment-effect vs placebo)", "setting": "Progressive MS, T(diag) > 4 Y", "result": "−0.147"}, {"measurement": "LSM EDSS, MAS (overall EDSS change from baseline)", "setting": "Progressive MS, T(diag) ≤ 1 Y", "result": "−0.099"}]}]}
